According to patent US9365558B2 (BRISTOL-MYERS SQUIBB COMPANY, priority 2013, dated 2016):

Target: Human MGAT-2 (Homo sapiens (Human), UniProt Q3SYC2)
Assay: MGAT LCMS Assay
Type: biochemical
Details: recombinant MGAT-2 membranes expressed in Sf9 cells; 100 μM 2-oleoylglycerol, 15 μM oleoyl-Coenzyme A; LC/MS of diolein; read-out: h-MGAT LCMS IC50
Description: Assay plates were run through a fully automated robotics system and shaken for 5 seconds every minute for a total 10 minutes. The reactions were then quenched with 120 μL of ice cold methanol containing 1 μg/mL 1,2-distearoyl-rac-glycerol as the internal standard. Plates were shaken for 2 minutes and spun down to remove protein precipitation. After the spin, samples were transferred to LC/MS compatible PCR plates. For LC/MS analysis, a ThermoFisher Surveyor pump, utilizing a Waters Symmetry C8, 50×2.1 mm column, was used for the chromatography of enzyme products. The buffer system consists of 0.1% formic acid in water with a mobile phase consisting 0.1% formic acid in methanol. The shallow gradient is 90-100% mobile phase in 0.2 min with a total run time of 2.3 min. The first 0.5 minutes of each injection was diverted to waste to eliminate the presence of Phosphate buffer in the enzymatic reaction. The column was run at 0.6 mL/min and a temperature of 65° C. Mass spectrometry analysis of the samples was performed on a ThermoFisher Quantum Triple quad utilizing APCI (+) as the mode of ionization. […] The ratio of Diolein to internal standard (Peak Area Ratio) is utilized to calculate IC50 values.

Human MGAT-2, sequence (Q3SYC2 whole entry): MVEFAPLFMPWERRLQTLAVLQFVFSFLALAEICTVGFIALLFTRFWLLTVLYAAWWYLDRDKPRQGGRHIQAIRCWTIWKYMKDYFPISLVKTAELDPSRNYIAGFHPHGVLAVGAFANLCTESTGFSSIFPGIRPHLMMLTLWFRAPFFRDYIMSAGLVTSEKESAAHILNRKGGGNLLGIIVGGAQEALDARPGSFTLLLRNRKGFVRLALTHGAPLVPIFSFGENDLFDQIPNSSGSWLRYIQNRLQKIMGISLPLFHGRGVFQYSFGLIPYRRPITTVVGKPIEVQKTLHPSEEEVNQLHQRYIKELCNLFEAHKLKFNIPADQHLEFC

IC50	Compound
38 nM	CS(=O)(=O)NC(=O)C1=C(c2ccc(OC(F)F)cc2)C[C@](c2ccc(OCCCCCC(F)(F)F)cc2)(C(F)(F)F)NC1=O [Example 5]
29 nM	O=C1N[C@@](c2ccc(OCCCC(F)(F)F)cc2)(C(F)(F)F)CC(c2ccn(C3CCC3)n2)=C1C(=O)NS(=O)(=O)C1CC1 [Example 77]
59 nM	CC(C)Cn1ccc(C2=C(C(=O)NS(=O)(=O)C3CC3)C(=O)N[C@@](c3ccc(CCCCC(F)(F)F)cc3F)(C(F)(F)F)C2)n1 [Example 54]
18 nM	Cc1ccc(C2=C(C(=O)NS(=O)(=O)C3CC3)C(=O)N[C@@](c3ccc(OCCCC(F)(F)F)cc3)(C(F)(F)F)C2)cc1 [Example 16]
25 nM	O=C1N[C@@](c2ccc(OCCCCCC(F)(F)F)cc2)(C(F)(F)F)CC(c2ccn(C3CC3)n2)=C1C(=O)NS(=O)(=O)C1CC1 [Example 78]
9 nM	Cc1ccc(C2=C(C(=O)NS(=O)(=O)C3CC3)C(=O)N[C@@](c3ncc(CCCCCCC(F)(F)F)s3)(C(F)(F)F)C2)cc1 [Example 3]
8 nM	CS(=O)(=O)NC(=O)C1=C(c2ccn(CC3CCC3)n2)C[C@](c2ccc(OCCCC(F)(F)F)cc2)(C(F)(F)F)NC1=O [Example 90]
5 nM	Cc1ccc(C2=C(C(=O)NS(=O)(=O)C(F)(F)F)C(=O)N[C@@](c3ccc(OCCCC(F)(F)F)cc3)(C(F)(F)F)C2)cc1 [Example 30]
62 nM	CC(C)Cn1ccc(C2=C(C(=O)NS(=O)(=O)C3CC3)C(=O)N[C@@](c3ccc(OCCCC(F)(F)F)cc3F)(C(F)(F)F)C2)n1 [Example 55]
72 nM	O=C1N[C@@](c2ccc(CCCCC(F)(F)F)cc2)(C(F)(F)F)CC(c2ccn(C3CC3)n2)=C1C(=O)NS(=O)(=O)C1CC1 [Example 76]
20 nM	CC(C)n1ccc(C2=C(C(=O)NS(C)(=O)=O)C(=O)N[C@@](c3ccc(OCCCC(F)(F)F)cc3F)(C(F)(F)F)C2)n1 [Example 43]
23 nM	CS(=O)(=O)NC(=O)C1=C(c2ccn(CC3CC3)n2)C[C@](c2ccc(OCCCC(F)(F)F)cc2)(C(F)(F)F)NC1=O [Example 91]
6 nM	Cc1ccc(C2=C(C(=O)NS(C)(=O)=O)C(=O)N[C@@](c3ccc(OCCCC(F)(F)F)cc3)(C(F)(F)F)C2)cc1 [Example 13]
9 nM	Cc1ccc(C2=C(C(=O)NS(=O)(=O)C3CC3)C(=O)N[C@@](c3ccc(OCCCC(F)(F)F)cc3Cl)(C(F)(F)F)C2)cc1 [Example 69]
17 nM	CCS(=O)(=O)NC(=O)C1=C(c2ccc(C)cc2)C[C@](c2ccc(OCCCCCC(F)(F)F)cc2)(C(F)(F)F)NC1=O [Example 1, (S)—N-(Ethylsulfonyl)-2-oxo-4-(p-tolyl)-6-(4-((6,6,6-trifluorohexyl)oxy)phenyl)-6-(trifluoromethyl)-1,2,5,6-tetrahydropyridine-3-carboxamide]
43 nM	COc1ccc(C2=C(C(=O)NS(=O)(=O)C3CC3)C(=O)N[C@@](c3ccc(OCCCCCC(F)(F)F)cc3)(C(F)(F)F)C2)cc1 [Example 38]
42 nM	CCOc1ccc(C2=C(C(=O)NS(C)(=O)=O)C(=O)N[C@@](c3ccc(OCCCC(F)(F)F)cc3F)(C(F)(F)F)C2)cc1 [Example 97]
43 nM	CC(C)Cn1ccc(C2=C(C(=O)NS(=O)(=O)C3CC3)C(=O)N[C@@](c3ccc(OCCCCCC(F)(F)F)cc3)(C(F)(F)F)C2)n1 [Example 81]
179 nM	Cc1ccc(C2=C(C(=O)NS(=O)(=O)C3CC3)C(=O)N[C@@](c3cnn(CCCCCC(F)(F)F)c3)(C(F)(F)F)C2)cc1 [Example 93]
4 nM	CC(C)(C)c1ccc(C2=C(C(=O)NS(=O)(=O)C3CC3)C(=O)N[C@@](c3ccc(OCCCCCC(F)(F)F)cc3)(C(F)(F)F)C2)cc1 [Example 20]
295 nM	COc1ccc(C2=C(C(=O)NS(C)(=O)=O)C(=O)N[C@@](c3ccc(OCCCC(F)(F)F)cc3)(C(F)(F)F)C2)cc1 [Example 34]
7 nM	CCOc1ccc(C2=C(C(=O)NS(=O)(=O)C3CC3)C(=O)N[C@@](c3ccc(OCCCC(F)(F)F)cc3F)(C(F)(F)F)C2)cc1 [Example 96]
12 nM	Cc1ccc(C2=C(C(=O)NS(=O)(=O)C3CC3)C(=O)N[C@@](c3ccc(OCCCCCC(F)(F)F)cc3)(C(F)(F)F)C2)cc1 [Example 11]
22 nM	Cc1ccc(C2=C(C(=O)NS(=O)(=O)C3CC3)C(=O)N[C@@](C3CCCCC3)(C(F)(F)F)C2)cc1 [Example 98]
23 nM	CC(C)n1ccc(C2=C(C(=O)NS(=O)(=O)C3CC3)C(=O)N[C@@](c3ccc(CCCCC(F)(F)F)cc3)(C(F)(F)F)C2)n1 [Example 75]
10 nM	O=C1N[C@@](c2ccc(CCCCC(F)(F)F)cc2F)(C(F)(F)F)CC(c2ccn(CC3CC3)n2)=C1C(=O)NS(=O)(=O)C1CC1 [Example 52]

IC50	Compound
22 nM	CS(=O)(=O)NC(=O)C1=C(c2ccc3c(c2)CCC3)C[C@](c2ccc(OCCCC(F)(F)F)cc2F)(C(F)(F)F)NC1=O [Example 66]
52 nM	COc1ccc(C2=C(C(=O)NS(=O)(=O)C3CC3)C(=O)N[C@@](c3ccc(OCCCCCC(F)(F)F)cc3)(C(F)(F)F)C2)cn1 [Example 18]
4 nM	O=C1N[C@@](c2cnn(CCCCCC(F)(F)F)c2)(C(F)(F)F)CC(c2ccc(C3CC3)s2)=C1C(=O)NS(=O)(=O)C1CC1 [Example 59]
3 nM	CC(C)n1ccc(C2=C(C(=O)NS(=O)(=O)C3CC3)C(=O)N[C@@](c3ccc(CCCCC(F)(F)F)cc3F)(C(F)(F)F)C2)c1 [Example 51]
8 nM	O=C1N[C@@](c2ccc(OCCCCC(F)(F)F)cc2)(C(F)(F)F)CC(c2ccc(C3CC3)s2)=C1C(=O)NS(=O)(=O)C1CC1 [Example 62]
353 nM	COc1ccc(C2=C(C(=O)NS(=O)(=O)N(C)C)C(=O)N[C@@](c3ccc(OCCCC(F)(F)F)cc3)(C(F)(F)F)C2)cc1 [Example 35]
6 nM	CS(=O)(=O)NC(=O)C1=C(c2ccc(C3CC3)s2)C[C@](c2ccc(OCCCC(F)(F)F)cc2)(C(F)(F)F)NC1=O [Example 64]
67 nM	O=C1N[C@@](c2ccc(OCCCC(F)(F)F)cc2)(C(F)(F)F)CC(c2ccn(CC3CC3)n2)=C1C(=O)NS(=O)(=O)C1CC1 [Example 88]
2 nM	CCc1ccc(C2=C(C(=O)NS(=O)(=O)C3CC3)C(=O)N[C@](C)(c3ccc(OCCCC(F)(F)F)cc3)C2)cc1 [Example 82]
4 nM	O=C1N[C@@](c2ccc(OCCCCCC(F)(F)F)cc2)(C(F)(F)F)CC(c2ccc(CC3CC3)cc2)=C1C(=O)NS(=O)(=O)C1CC1 [Example 23]
24 nM	CCCCCCC#C[C@]1(C(F)(F)F)CC(c2ccc(OC(F)F)cc2)=C(C(=O)NS(C)(=O)=O)C(=O)N1 [Example 12]
235 nM	CCCCCCCc1cnc([C@@]2(C(F)(F)F)CC(c3ccc(C)cc3)=C(C(=O)NS(=O)(=O)C3CC3)C(=O)N2)s1 [Example 41]
16 nM	CS(=O)(=O)NC(=O)C1=C(c2ccn(C3CC3)n2)C[C@](c2ccc(OCCCC(F)(F)F)cc2F)(C(F)(F)F)NC1=O [Example 47]
45 nM	Cc1ccc(C2=C(C(=O)NS(N)(=O)=O)C(=O)N[C@@](c3ccc(OCCCC(F)(F)F)cc3)(C(F)(F)F)C2)cc1 [Example 61]
6 nM	O=C1N[C@@](c2ccc(OCCCCCC(F)(F)F)cc2)(C(F)(F)F)CC(c2ccc(OC(F)F)cc2)=C1C(=O)NS(=O)(=O)C1CC1 [Example 37]
7 nM	CS(=O)(=O)NC(=O)C1=C(c2ccn(C3CCC3)n2)C[C@](c2ccc(OCCCC(F)(F)F)cc2F)(C(F)(F)F)NC1=O [Example 44]
17 nM	CN(C)c1ccc(C2=C(C(=O)NS(=O)(=O)C3CC3)C(=O)N[C@@](c3ccc(OCCCCCC(F)(F)F)cc3)(C(F)(F)F)C2)cc1 [Example 4]
4 nM	CC(C)n1ccc(C2=C(C(=O)NS(=O)(=O)C3CC3)C(=O)N[C@@](c3ccc(OCCCCCC(F)(F)F)cc3)(C(F)(F)F)C2)c1 [Example 72]
7 nM	CC(C)(C)c1ccc(C2=C(C(=O)NS(C)(=O)=O)C(=O)N[C@@](c3ccc(OCCCCCC(F)(F)F)cc3)(C(F)(F)F)C2)cc1 [Example 21]
47 nM	CCn1ccc(C2=C(C(=O)NS(=O)(=O)C3CC3)C(=O)N[C@@](c3ccc(OCCCC(F)(F)F)cc3F)(C(F)(F)F)C2)n1 [Example 48]
348 nM	Cc1ccc(C2=C(C(=O)NS(=O)(=O)C(C)(C)C)C(=O)N[C@@](c3ccc(OCCCC(F)(F)F)cc3)(C(F)(F)F)C2)cc1 [Example 28]
54 nM	CS(=O)(=O)NC(=O)C1=C(c2ccc(OC(F)F)cc2)C[C@](c2ccc(OCCCC(F)(F)F)cc2)(C(F)(F)F)NC1=O [Example 14]
5 nM	O=C1N[C@@](c2ccc(OCCCC(F)(F)F)cc2)(C(F)(F)F)CC(c2ccc(C3CC3)s2)=C1C(=O)NS(=O)(=O)C1CC1 [Example 63]
23 nM	CN(C)S(=O)(=O)NC(=O)C1=C(c2ccc(OC(F)F)cc2)C[C@](c2ccc(OCCCCCC(F)(F)F)cc2)(C(F)(F)F)NC1=O [Example 39]
33 nM	CCS(=O)(=O)NC(=O)C1=C(c2ccc(OC(F)F)cc2)C[C@](c2ccc(OCCCCCC(F)(F)F)cc2)(C(F)(F)F)NC1=O [Example 8]
20 nM	CCCCCCC#C[C@]1(C(F)(F)F)CC(c2ccc(C)cc2)=C(C(=O)NS(=O)(=O)C2CC2)C(=O)N1 [Example 2]

Compound	IC50
O=C1N[C@@](c2ccc(OCCCC(F)(F)F)cc2F)(C(F)(F)F)CC(c2ccn(C3CCC3)n2)=C1C(=O)NS(=O)(=O)C1CC1 [Example 45]	17 nM
